45 compounds from US9284283B2, “Macrocyclic compounds for modulating IL-17” (ENSEMBLE THERAPEUTICS CORPORATION, priority 2012, dated 2016) can be followed below.

Some results are limits rather than exact numbers.

For the test, the target named is T1, biotinylated human IL-17 (binding to IL17R/Fc) (Homo sapiens, UniProt Q16552).
T1 construct: purchased R&D Systems 317-ILB (IL-17, biotinylated); 177-IR (IL17R/Fc)
T1 sequence (Q16552 20-155 limits assumed): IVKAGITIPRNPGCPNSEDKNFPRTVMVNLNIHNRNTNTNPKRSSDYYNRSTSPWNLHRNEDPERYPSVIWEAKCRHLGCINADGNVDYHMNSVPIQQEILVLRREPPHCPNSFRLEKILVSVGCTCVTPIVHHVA
As to the kind of experiment: IL-17 competition ELISA II (captured IL17R/Fc, biotinylated IL-17). The method, boiled down: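 Anti-human IgG-coated plates captured IL17R/Fc (10 nM), then compound (5-fold dilutions from 1 μM) and biotinylated human IL-17 (20 nM stock) were added for 30 min at room temperature in PBST. Bound IL-17 detected by streptavidin-HRP/TMB at 450 nm. IC50 from 4-parameter logistic fit between no-competitor and blank controls.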
On the technique in general: In an ELISA, binding on a coated surface is turned into a signal by an enzyme label.
By IC50 is commonly meant the concentration needed to halve the response being measured. `COC(=O)N[C@@H](Cc1ccccc1Cl)C(=O)Nc1ccc(C[C@H]2NC(=O)CC3(CCCC3)CC(=O)N(C)CCOCCN(C)C(=O)[C@@H](C)NC2=O)cc1` [Compound 569]: the IC50 is less than 100 nM.
Under `COC(=O)N[C@@H](Cc1ccccc1Cl)C(=O)Nc1ccc(C[C@H]2NC(=O)CC3(CCCC3)CC(=O)N(C)CCCCCN(C)C(=O)[C@@H](C)NC2=O)cc1` [Compound 570] stands less than 100 nM.
As to `O=C1CC2(CCCC2)CC(=O)N[C@H](Cc2ccc(NC(=O)[C@H](Cc3ccccc3Cl)NC(=O)Oc3ccc(F)cc3)cc2)C(=O)NCCOCCOCCN1` [Compound 572], the IC50 is less than 100 nM.
As for `C[C@H]1NC(=O)[C@@H](Cc2ccc(NC(=O)[C@H](Cc3ccccc3Cl)NC(=O)C(=O)c3ccccc3)cc2)NC(=O)CC2(CCCC2)CC(=O)N(C)CCN(C)CCN(C)C1=O` [Compound 573], the IC50 is less than 100 nM.
Turning to `C[C@H]1NC(=O)[C@@H](Cc2ccc(NC(=O)[C@H](Cc3ccccc3Cl)NC(=O)Oc3ccccc3)cc2)NC(=O)CC2(CCCC2)CC(=O)N(C)CCN(C)CCN(C)C1=O` [Compound 574], the IC50 was less than 100 nM.
For the compound `C[C@H]1NC(=O)[C@@H](Cc2ccc(NC(=O)[C@H](Cc3ccccc3Cl)NC(=O)Oc3ccc(F)cc3)cc2)NC(=O)CC2(CCCC2)CC(=O)NCCCCCNC1=O` [Compound 575], the IC50 was less than 100 nM.
On to `C[C@H]1NC(=O)[C@@H](Cc2ccc(NC(=O)[C@H](Cc3ccccc3Cl)NC(=O)OCc3ccccc3)cc2)NC(=O)CC2(CCCC2)CC(=O)NCCCCCNC1=O` [Compound 576], for which the IC50 was less than 100 nM.
Under `CCOC(=O)N[C@@H](Cc1ccccc1Cl)C(=O)Nc1ccc(C[C@H]2NC(=O)CC3(CCCC3)CC(=O)NCCCCCNC(=O)[C@@H](C)NC2=O)cc1` [Compound 577] stands less than 100 nM; under `CC(C)OC(=O)N[C@@H](Cc1ccccc1Cl)C(=O)Nc1ccc(C[C@H]2NC(=O)CC3(CCCC3)CC(=O)NCCCCCNC(=O)[C@@H](C)NC2=O)cc1` [Compound 578], less than 100 nM; under `CCOC(=O)N[C@@H](Cc1ccccc1Cl)C(=O)Nc1ccc(C[C@H]2NC(=O)CC3(CCCC3)CC(=O)NCCOCCOCCNC2=O)cc1` [Compound 579], less than 100 nM.
Under `CC(C)OC(=O)N[C@@H](Cc1ccccc1Cl)C(=O)Nc1ccc(C[C@H]2NC(=O)CC3(CCCC3)CC(=O)NCCOCCOCCNC2=O)cc1` [Compound 580] stands less than 100 nM; under `CN1CCOCCOCCNC(=O)[C@@H](Cc2ccc(NC(=O)[C@H](Cc3ccccc3Cl)NC(=O)[C@H](O)c3ccccc3)cc2)NC(=O)CC2(CCCC2)CC1=O` [Compound 581], less than 100 nM.
Then `C[C@H]1NC(=O)[C@@H](Cc2ccc(NC(=O)[C@H](Cc3ccccc3Cl)NC(=O)[C@H](O)c3ccccc3)cc2)NC(=O)CC2(CCCC2)CC(=O)N(C)CCOCCN(C)C1=O` [Compound 583], with less than 100 nM; and `CN1CCOCCOCCNC(=O)[C@@H](Cc2ccc(NC(=O)[C@H](Cc3ccccc3Cl)NC(=O)C(=O)c3ccccc3)cc2)NC(=O)CC2(CCCC2)CC1=O` [Compound 585], with less than 100 nM; and `C[C@H]1NC(=O)[C@@H](Cc2ccc(NC(=O)[C@H](Cc3ccccc3Cl)NC(=O)Oc3ccccc3)cc2)NC(=O)CC2(CCCC2)CC(=O)NCCCCCNC1=O` [Compound 586], with less than 100 nM.
Consider `C[C@H]1NC(=O)[C@@H](Cc2ccc(NC(=O)[C@H](Cc3ccccc3Cl)NC(=O)OCc3ccccc3)cc2)NC(=O)CC2(CCCC2)CC(=O)N(C)CCN(C)CCN(C)C1=O` [Compound 587], for which the IC50 was less than 100 nM.
As to `COC(=O)N[C@@H](Cc1ccccc1Cl)C(=O)Nc1ccc(C[C@H]2NC(=O)CC3(CCCC3)CC(=O)N(C)CCN(C)CCN(C)C(=O)[C@@H](C)NC2=O)cc1` [Compound 588], the IC50 was less than 100 nM.
Then `CN1CCOCCOCCN(C)C(=O)[C@@H](Cc2ccc(NC(=O)[C@H](Cc3ccccc3Cl)NC(=O)Cc3ccccc3)cc2)NC(=O)CC2(CCCC2)CC1=O` [Compound 589], with less than 100 nM.
Then `CN1CCOCCOCCN(C)C(=O)[C@@H](Cc2ccc(NC(=O)[C@H](Cc3ccccc3Cl)NC(=O)Cc3ccc(F)cc3)cc2)NC(=O)CC2(CCCC2)CC1=O` [Compound 590], with less than 100 nM.
Under `CN1CCOCCOCCN(C)C(=O)[C@@H](Cc2ccc(NC(=O)[C@H](Cc3ccccc3Cl)NC(=O)C(F)(F)c3ccccc3)cc2)NC(=O)CC2(CCCC2)CC1=O` [Compound 591] stands less than 100 nM.
As for `C[C@H]1NC(=O)[C@@H](Cc2ccc(NC(=O)[C@H](Cc3ccccc3Cl)NC(=O)Cc3ccc(F)cc3)cc2)NC(=O)[C@H]2CC[C@H](CC2)C(=O)NCCCCCNC1=O` [Compound 592], the IC50 was in the range of 100 to 1000 nM.
Under `C[C@H]1NC(=O)[C@@H](Cc2ccc(NC(=O)[C@H](Cc3ccccc3Cl)NC(=O)C(=O)c3ccccc3)cc2)NC(=O)CC2(CCCC2)CC(=O)N(C)CCOCCN(C)C1=O` [Compound 594] stands less than 100 nM.
Under `O=C1CC2(CCCC2)CC(=O)N[C@H](Cc2ccc(NC(=O)[C@@H](NC(=O)C(F)(F)c3ccccc3)C3CCCCC3)cc2)C(=O)NCCOCCOCCN1` [Compound 595] stands less than 100 nM; under `CN(C)c1ccc(CC(=O)N[C@H](C(=O)Nc2ccc(C[C@H]3NC(=O)CC4(CCCC4)CC(=O)NCCOCCOCCNC3=O)cc2)C2CCCCC2)cc1` [Compound 596], less than 100 nM.
Then `O=C1CC2(CCCC2)CC(=O)N[C@H](Cc2ccc(NC(=O)[C@H](Cc3ccccc3Cl)NC(=O)C(F)(F)c3ccccc3)cc2)C(=O)NCCCCCCCCN1` [Compound 597], with less than 100 nM; and `CN(C)c1ccc(CC(=O)N[C@H](C(=O)Nc2ccc(C[C@H]3NC(=O)CC4(CCCC4)CC(=O)NCCCCCCCCNC3=O)cc2)C2CCCCC2)cc1` [Compound 599], with less than 100 nM.
In the case of `C[C@H]1NC(=O)[C@@H](Cc2ccc(NC(=O)[C@@H](NC(=O)C(F)(F)c3ccccc3)C3CCCCC3)cc2)NC(=O)CC2(CCCC2)CC(=O)N(C)CCOCCN(C)C1=O` [Compound 602], the IC50 is less than 100 nM.
Consider `C[C@H]1NC(=O)[C@@H](Cc2ccc(NC(=O)[C@@H](NC(=O)Cc3ccc(N(C)C)cc3)C3CCCCC3)cc2)NC(=O)CC2(CCCC2)CC(=O)N(C)CCOCCN(C)C1=O` [Compound 603], for which the IC50 was less than 100 nM.
Regarding `C[C@H]1NC(=O)[C@@H](Cc2ccc(NC(=O)[C@@H](NC(=O)C(F)(F)c3ccccc3)C3CCCCC3)cc2)NC(=O)CC2(CCCC2)CC(=O)N(C)CCN(C)CCN(C)C1=O` [Compound 604], the half-maximal inhibitory concentration (IC50) was less than 100 nM.
As to `C[C@H]1NC(=O)[C@@H](Cc2ccc(NC(=O)[C@@H](NC(=O)Cc3ccc(N(C)C)cc3)C3CCCCC3)cc2)NC(=O)CC2(CCCC2)CC(=O)N(C)CCN(C)CCN(C)C1=O` [Compound 605], the IC50 is less than 100 nM.
Then `C[C@H]1NC(=O)[C@@H](CCCCNC(=O)[C@H](Cc2ccccc2Cl)NC(=O)C(F)(F)c2ccccc2)NC(=O)CC2(CCCC2)CC(=O)NCCCCCNC1=O` [Compound 606], with greater than 10000 nM.
Then `C[C@H]1NC(=O)[C@@H](CCCNC(=O)[C@H](Cc2ccccc2Cl)NC(=O)Cc2ccc(F)cc2)NC(=O)CC2(CCCC2)CC(=O)NCCCCCNC1=O` [Compound 607], with greater than 10000 nM; and `C[C@H]1NC(=O)[C@@H](CCCNC(=O)[C@H](Cc2ccccc2Cl)NC(=O)C(F)(F)c2ccccc2)NC(=O)CC2(CCCC2)CC(=O)NCCCCCNC1=O` [Compound 608], with greater than 10000 nM; and `C[C@H]1NC(=O)[C@@H](CCNC(=O)[C@H](Cc2ccccc2Cl)NC(=O)Cc2ccc(F)cc2)NC(=O)CC2(CCCC2)CC(=O)NCCCCCNC1=O` [Compound 609], with greater than 10000 nM.
Turning to `C[C@H]1NC(=O)[C@@H](CCNC(=O)[C@H](Cc2ccccc2Cl)NC(=O)C(F)(F)c2ccccc2)NC(=O)CC2(CCCC2)CC(=O)NCCCCCNC1=O` [Compound 610], the IC50 is greater than 10000 nM.
On to `CN1CCOCCOCCNC(=O)[C@@H](Cc2ccc(NC(=O)[C@@H](NC(=O)C(F)(F)c3ccccc3)C3CCCCC3)cc2)NC(=O)CC2(CCCC2)CC1=O` [Compound 611], for which the IC50 is less than 100 nM.
Under `CN1CCOCCOCCNC(=O)[C@@H](Cc2ccc(NC(=O)[C@H](CC3CCCCC3)NC(=O)C(F)(F)c3ccccc3)cc2)NC(=O)CC2(CCCC2)CC1=O` [Compound 613] stands less than 100 nM.
As for `CN1CCOCCOCCNC(=O)[C@@H](Cc2ccc(NC(=O)[C@H](CC3CCCCC3)NC(=O)Cc3ccc(N(C)C)cc3)cc2)NC(=O)CC2(CCCC2)CC1=O` [Compound 614], the IC50 is less than 100 nM.
On to `CN1CCOCCOCCNC(=O)[C@@H](Cc2ccc(NC(=O)[C@H](CC3CCC3)NC(=O)C(F)(F)c3ccccc3)cc2)NC(=O)CC2(CCCC2)CC1=O` [Compound 615], for which the IC50 is less than 100 nM.
Regarding `CN1CCOCCOCCNC(=O)[C@@H](Cc2ccc(NC(=O)[C@H](CC3CCC3)NC(=O)Cc3ccc(N(C)C)cc3)cc2)NC(=O)CC2(CCCC2)CC1=O` [Compound 616], the IC50 is less than 100 nM.
As to `C[C@H]1NC(=O)[C@@H](Cc2ccc(NC(=O)[C@H](Cc3ccccc3Cl)NC(=O)Cc3ccc(F)cc3)cc2)NC(=O)CC2(CCCC2)NC(=O)CCCCCNC1=O` [Compound 617], the IC50 is less than 100 nM.
Then `C[C@H]1NC(=O)[C@@H](Cc2ccc(NC(=O)[C@H](Cc3ccccc3Cl)NC(=O)Cc3ccc(F)cc3)cc2)NC(=O)CC2(CCCC2)NC(=O)CCCCCCNC1=O` [Compound 618], with less than 100 nM.
Then `C[C@H]1NC(=O)[C@@H](Cc2ccc(NC(=O)[C@H](Cc3ccccc3Cl)NC(=O)Cc3ccc(F)cc3)cc2)NC(=O)CC2(CCCC2)NC(=O)CCCCCCCNC1=O` [Compound 619], with less than 100 nM; and `C[C@H]1NC(=O)[C@@H](Cc2ccc(NC(=O)[C@H](Cc3ccccc3Cl)NC(=O)Cc3ccc(F)cc3)cc2)NC(=O)CC(C)(C)NC(=O)CCCCCCNC1=O` [Compound 620], with less than 100 nM.
Then `C[C@H]1NC(=O)[C@@H](Cc2ccc(NC(=O)[C@H](Cc3ccccc3Cl)NC(=O)Cc3ccc(F)cc3)cc2)NC(=O)CC2(CCCCC2)NC(=O)CCCCCCNC1=O` [Compound 621], with less than 100 nM.
